Test results taken from ChEMBL document CHEMBL1201862, “PubChem BioAssay data set” (2004).
The source made the active and inactive calls.

Columns and labels:
[1] = cytotoxicity in HEK-293T cells, dose response, cytotoxicity control for BCR NF-kB inhibitor project, luminescence, B-cell screen hits (AID 489021); assay type: functional, cell-based;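 further: HEK-293T cells carrying an NF-kB luciferase reporter; cells exposed to compound for about 14 hours before viability readout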
[2] = cells; assay type: functional, cell-based
[3] = cells; assay type: functional, cell-based; remark: listed apart in the source
[4] = target: T1, Cytochrome P450 1A2 (Homo sapiens, UniProt P05177);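 further: PubChem cytochrome P450 panel assay, CYP1A2 panel member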
T1 sequence (P05177 whole entry): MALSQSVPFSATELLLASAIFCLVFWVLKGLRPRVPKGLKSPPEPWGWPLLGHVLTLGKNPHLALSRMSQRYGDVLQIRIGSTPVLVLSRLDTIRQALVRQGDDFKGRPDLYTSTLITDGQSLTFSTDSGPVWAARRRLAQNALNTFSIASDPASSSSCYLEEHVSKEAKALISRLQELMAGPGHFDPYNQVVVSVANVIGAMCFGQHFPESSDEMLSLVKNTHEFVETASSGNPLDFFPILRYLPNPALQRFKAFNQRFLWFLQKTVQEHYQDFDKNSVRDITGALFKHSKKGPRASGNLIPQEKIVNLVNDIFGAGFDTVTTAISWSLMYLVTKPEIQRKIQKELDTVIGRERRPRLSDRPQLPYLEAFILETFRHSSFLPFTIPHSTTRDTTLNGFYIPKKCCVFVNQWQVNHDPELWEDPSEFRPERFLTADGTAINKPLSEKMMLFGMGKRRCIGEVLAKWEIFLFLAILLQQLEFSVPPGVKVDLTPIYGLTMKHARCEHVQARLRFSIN

[5] = target: Cytochrome P450 2C9 (Homo sapiens, UniProt P11712)
Cytochrome P450 2C9, sequence (P11712 whole entry): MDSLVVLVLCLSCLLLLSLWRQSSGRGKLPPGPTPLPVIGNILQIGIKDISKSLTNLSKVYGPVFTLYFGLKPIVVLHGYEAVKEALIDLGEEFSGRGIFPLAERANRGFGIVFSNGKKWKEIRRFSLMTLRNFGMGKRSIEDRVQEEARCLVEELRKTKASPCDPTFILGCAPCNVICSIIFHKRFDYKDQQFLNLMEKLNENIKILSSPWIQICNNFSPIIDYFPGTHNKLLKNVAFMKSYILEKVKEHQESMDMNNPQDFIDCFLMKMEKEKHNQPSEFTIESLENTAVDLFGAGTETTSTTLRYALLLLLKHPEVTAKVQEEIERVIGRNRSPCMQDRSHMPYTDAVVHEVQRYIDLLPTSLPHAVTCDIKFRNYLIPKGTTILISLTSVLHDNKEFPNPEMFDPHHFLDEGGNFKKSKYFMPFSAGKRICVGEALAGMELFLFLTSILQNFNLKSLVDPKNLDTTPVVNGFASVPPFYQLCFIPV

[6] = target: T2, Caspase-6 (Homo sapiens, UniProt P55212); assay: human caspase-6 inhibitors, dose response, biochemical, VEID-R110 fluorescence, cherry-pick (AID 720632)
T2 sequence (P55212 whole entry): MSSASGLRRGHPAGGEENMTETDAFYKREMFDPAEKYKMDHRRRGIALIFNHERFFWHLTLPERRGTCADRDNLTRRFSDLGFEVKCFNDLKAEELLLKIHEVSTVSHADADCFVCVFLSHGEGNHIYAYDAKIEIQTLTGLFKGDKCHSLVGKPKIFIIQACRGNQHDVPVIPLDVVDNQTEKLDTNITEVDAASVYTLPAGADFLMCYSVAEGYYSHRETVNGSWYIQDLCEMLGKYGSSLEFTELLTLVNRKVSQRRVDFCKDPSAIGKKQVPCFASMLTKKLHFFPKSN

[7] = cells; assay type: functional
[8] = target: T3, Mannose-6-phosphate isomerase (Homo sapiens, UniProt P34949); assay: human PMI inhibitors, high substrate, primary screen, biochemical, fluorescence intensity, high mannose 6-phosphate (AID 1220)
T3 sequence (P34949 whole entry): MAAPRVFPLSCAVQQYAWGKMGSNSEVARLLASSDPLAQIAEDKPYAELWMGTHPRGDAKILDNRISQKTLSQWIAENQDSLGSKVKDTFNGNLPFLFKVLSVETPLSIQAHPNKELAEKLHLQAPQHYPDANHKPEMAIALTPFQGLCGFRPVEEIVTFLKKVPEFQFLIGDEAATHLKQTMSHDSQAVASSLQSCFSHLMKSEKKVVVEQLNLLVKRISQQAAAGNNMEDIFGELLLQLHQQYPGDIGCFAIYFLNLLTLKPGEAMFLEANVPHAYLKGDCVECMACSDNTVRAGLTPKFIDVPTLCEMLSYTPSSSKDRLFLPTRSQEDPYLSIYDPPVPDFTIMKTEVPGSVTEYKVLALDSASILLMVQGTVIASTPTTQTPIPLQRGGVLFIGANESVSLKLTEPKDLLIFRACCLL

[9] = cells; assay type: functional, cell-based; remark: listed apart in the source
[10] = target: T4, Apoptotic protease-activating factor 1 (Homo sapiens, UniProt O14727); assay type: functional
T4 sequence (O14727 whole entry): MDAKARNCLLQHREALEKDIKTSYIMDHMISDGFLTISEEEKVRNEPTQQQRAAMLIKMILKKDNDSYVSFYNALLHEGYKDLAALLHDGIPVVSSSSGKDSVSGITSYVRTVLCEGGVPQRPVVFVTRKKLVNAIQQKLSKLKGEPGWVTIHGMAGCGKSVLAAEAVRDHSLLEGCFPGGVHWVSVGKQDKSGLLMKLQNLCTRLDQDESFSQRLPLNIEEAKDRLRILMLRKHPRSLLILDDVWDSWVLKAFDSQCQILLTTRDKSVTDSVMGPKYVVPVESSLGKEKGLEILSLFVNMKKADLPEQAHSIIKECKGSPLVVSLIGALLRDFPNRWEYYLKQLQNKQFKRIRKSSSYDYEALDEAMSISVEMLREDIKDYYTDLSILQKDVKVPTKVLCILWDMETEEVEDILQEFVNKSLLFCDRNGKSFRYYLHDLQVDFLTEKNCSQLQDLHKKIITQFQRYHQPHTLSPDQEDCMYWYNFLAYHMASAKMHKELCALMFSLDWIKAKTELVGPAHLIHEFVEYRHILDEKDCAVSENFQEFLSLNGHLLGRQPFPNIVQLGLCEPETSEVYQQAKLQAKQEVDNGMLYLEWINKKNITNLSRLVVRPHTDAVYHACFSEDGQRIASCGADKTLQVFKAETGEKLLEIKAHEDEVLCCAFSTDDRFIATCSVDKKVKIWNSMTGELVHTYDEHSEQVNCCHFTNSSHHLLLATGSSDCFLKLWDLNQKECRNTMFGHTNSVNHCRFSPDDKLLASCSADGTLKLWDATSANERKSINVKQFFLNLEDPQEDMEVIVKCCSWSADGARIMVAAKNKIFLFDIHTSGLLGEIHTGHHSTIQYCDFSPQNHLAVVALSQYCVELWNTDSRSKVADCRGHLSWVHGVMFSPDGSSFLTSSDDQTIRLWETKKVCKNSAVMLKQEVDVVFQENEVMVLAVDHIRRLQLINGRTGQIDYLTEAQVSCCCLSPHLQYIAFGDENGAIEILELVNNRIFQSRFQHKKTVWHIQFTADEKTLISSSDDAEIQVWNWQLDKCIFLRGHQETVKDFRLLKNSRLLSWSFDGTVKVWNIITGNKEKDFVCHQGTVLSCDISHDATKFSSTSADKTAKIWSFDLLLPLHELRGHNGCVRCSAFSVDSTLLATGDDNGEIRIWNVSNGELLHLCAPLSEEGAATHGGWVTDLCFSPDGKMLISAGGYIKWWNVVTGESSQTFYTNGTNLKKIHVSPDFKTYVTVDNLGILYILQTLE

[11] = cells; assay type: functional, cell-based; remark: listed apart in the source
[12] = target: Cytochrome P450 3A4 (Homo sapiens, UniProt P08684);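 further: CYP3A4 tested as one member of a cytochrome P450 panel screen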
Cytochrome P450 3A4, sequence (P08684 whole entry): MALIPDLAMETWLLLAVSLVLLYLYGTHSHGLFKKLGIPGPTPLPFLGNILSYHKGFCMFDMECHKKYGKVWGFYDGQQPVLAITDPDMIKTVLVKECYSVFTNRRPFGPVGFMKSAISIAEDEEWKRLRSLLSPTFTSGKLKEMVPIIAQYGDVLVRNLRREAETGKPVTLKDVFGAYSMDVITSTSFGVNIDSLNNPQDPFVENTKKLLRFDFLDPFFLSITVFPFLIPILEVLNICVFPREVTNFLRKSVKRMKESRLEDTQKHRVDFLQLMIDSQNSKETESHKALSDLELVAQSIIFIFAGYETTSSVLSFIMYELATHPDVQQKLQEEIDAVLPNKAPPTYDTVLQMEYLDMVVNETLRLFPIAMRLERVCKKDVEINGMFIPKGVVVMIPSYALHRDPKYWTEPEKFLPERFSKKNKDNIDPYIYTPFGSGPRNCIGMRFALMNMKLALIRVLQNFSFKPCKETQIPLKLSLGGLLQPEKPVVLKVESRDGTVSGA

[13] = target: T5, Zinc finger protein mex-5 (Caenorhabditis elegans, UniProt Q9XUB2); assay: MEX-5/TCR-2 RNA interaction inhibitors, dose response, biochemical, C. elegans, fluorescence polarization (AID 1960)
T5 sequence (Q9XUB2 whole entry): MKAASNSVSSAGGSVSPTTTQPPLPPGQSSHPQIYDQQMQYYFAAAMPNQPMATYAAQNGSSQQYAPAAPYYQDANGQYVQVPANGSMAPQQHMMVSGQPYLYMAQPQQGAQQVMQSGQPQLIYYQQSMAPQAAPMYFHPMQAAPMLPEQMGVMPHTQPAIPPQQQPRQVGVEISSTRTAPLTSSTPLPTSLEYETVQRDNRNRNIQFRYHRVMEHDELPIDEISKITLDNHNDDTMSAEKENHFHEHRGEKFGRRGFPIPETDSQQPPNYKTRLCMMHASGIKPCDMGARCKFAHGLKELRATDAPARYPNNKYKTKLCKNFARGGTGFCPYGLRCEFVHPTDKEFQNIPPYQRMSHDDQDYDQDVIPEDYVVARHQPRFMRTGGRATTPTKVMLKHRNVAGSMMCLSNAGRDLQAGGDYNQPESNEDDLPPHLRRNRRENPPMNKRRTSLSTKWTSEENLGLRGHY

[14] = target: T6, RNA-binding protein pos-1 (Caenorhabditis elegans, UniProt G5EF15); assay: inhibitors of POS-1/mex-3 RNA binding, dose response, biochemical, fluorescence polarization (AID 1964);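 further: purified POS-1 fused to maltose binding protein made in E. coli; potency of compounds blocking POS-1 binding to fluorescent RNA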
T6 sequence (G5EF15 whole entry): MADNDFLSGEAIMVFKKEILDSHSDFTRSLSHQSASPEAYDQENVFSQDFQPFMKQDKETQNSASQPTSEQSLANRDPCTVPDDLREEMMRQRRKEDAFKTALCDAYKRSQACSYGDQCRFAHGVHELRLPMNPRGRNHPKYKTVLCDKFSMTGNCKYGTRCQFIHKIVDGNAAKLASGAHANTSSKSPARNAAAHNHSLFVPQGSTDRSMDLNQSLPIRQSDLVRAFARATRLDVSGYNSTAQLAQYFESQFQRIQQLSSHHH

[15] = target: T7, Corticotropin-releasing factor receptor 2/Corticotropin-releasing factor-binding protein (Homo sapiens, UniProt P24387+Q13324); assay: Dose Response confirmation of uHTS hits for small molecule antagonists of the CRF-binding protein and CRF-R2 receptor complex.; assay type: functional; conditions: read-out: IC50_Mean
T7 sequence (Q13324 whole entry): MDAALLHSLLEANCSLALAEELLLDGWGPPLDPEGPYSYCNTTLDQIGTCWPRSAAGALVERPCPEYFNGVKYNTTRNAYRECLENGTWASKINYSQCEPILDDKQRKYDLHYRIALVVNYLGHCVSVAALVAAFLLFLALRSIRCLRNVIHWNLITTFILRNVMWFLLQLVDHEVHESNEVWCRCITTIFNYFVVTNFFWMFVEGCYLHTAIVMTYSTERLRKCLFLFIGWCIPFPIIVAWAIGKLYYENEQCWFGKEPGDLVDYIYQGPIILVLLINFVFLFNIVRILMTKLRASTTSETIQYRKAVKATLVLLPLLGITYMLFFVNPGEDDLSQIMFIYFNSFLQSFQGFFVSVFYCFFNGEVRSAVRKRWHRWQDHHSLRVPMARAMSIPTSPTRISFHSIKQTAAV
T7 sequence (P24387 whole entry): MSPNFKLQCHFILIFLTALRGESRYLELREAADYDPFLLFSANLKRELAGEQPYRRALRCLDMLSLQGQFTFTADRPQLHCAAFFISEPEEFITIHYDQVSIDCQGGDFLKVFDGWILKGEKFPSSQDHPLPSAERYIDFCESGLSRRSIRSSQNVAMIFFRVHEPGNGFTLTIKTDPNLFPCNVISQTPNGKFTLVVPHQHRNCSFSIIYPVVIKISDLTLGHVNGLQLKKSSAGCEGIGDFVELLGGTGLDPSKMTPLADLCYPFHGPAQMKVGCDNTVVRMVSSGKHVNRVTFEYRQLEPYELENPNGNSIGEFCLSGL

[16] = target: T7, Corticotropin-releasing factor receptor 2/Corticotropin-releasing factor-binding protein; assay: activators of CRF receptor 2 with binding protein – uHTS hits, confirmation (AID 602473); assay type: functional; conditions: read-out: EC50_Mean
[17] = CRF-BP/CRF-R2 complex antagonists, dose response, cell-based, uHTS hits, 384-well (AID 651639); assay type: functional, Homo sapiens; conditions: read-out: IC50_Mean

SMILES: CN1C(=O)CSc2ccc(NC(=O)N3CCN(c4ccccc4)CC3)cc21
- IC50 [1]: > 80 µM (inactive)

SMILES: O=C(COc1ccc(F)cc1)NNC(=O)c1cc2ccccc2oc1=O
- EC50 [2]: > 29.9 µM (inactive)
- IC50 [3]: > 29.9 µM (inactive)

SMILES: Cc1ccc(-n2cc(C(=O)c3ccc4ccccc4c3O)cn2)cc1
- AC50 [4]: 1.41 µM (inconclusive)
- AC50 [5]: inconclusive

SMILES: CC(=C1C(=O)c2ccccc2C1=O)N1CCc2ccccc2C1
- EC50 [2]: > 29.9 µM (inactive)
- IC50 [3]: > 29.9 µM (inactive)

SMILES: COc1c(NC(C)=O)c2ccccc2c2ccccc12
- AC50 [5]: inconclusive

SMILES: CCCCNS(=O)(=O)c1cc(-c2nn(C)c(=O)c3ccccc23)ccc1C
- AC50 [6]: 21.3 µM (active)

SMILES: Cc1ccc2c(c1)c1c3n2CCN=C3CCC1
- IC50 [7]: 11.9 µM (active)

SMILES: O=C(CSc1ccc(-c2ccccn2)nn1)c1ccc(F)cc1
- IC50 [8]: > 50 µM (not active)

SMILES: CC(=O)c1ccc(NC(=O)c2cc(CC(C)C)on2)cc1
- IC50 [7]: 12 µM (active)

SMILES: CC1CCN(S(=O)(=O)c2ccc3c4c2CC(=O)N4CC(C)S3)CC1 (stereo not given)
- EC50 [9]: > 350 µM (not active)
- IC50 [10]: 3.64 µM (active)
- EC50 [11]: > 350 µM (not active)

SMILES: O=C(OCn1nnc2ccccc2c1=O)c1ccc(N2CCOCC2)c([N+](=O)[O-])c1
- IC50 [7]: 10 µM (active)

SMILES: O=C(NCc1ccccc1)c1ccc(Cl)cc1[N+](=O)[O-]
- AC50 [12]: 22.4 µM (inconclusive)
- AC50 [4]: 20 µM (inconclusive)
- AC50 [5]: inconclusive

SMILES: O=C(Nc1ccccc1F)c1coc(=O)c(Br)c1
- EC50 [13]: > 300 µM (not active)
- EC50 [14]: > 300 µM (not active)
- AC50 [6]: 23.8 µM (active)

SMILES: Cc1nc2c(C(=O)NCCc3ccccc3)cnn2c(O)c1Cl
- IC50 [15]: 44.5 µM (active)
- IC50 [8]: > 50 µM (not active)
- EC50 [16]: > 53 µM (inactive)
- IC50 [17]: > 20 µM (inactive)

SMILES: CCN(CC(=O)NCc1cccs1)S(=O)(=O)c1ccc(C(C)C)cc1
- AC50 [5]: inconclusive

SMILES: C[C@H](O)[C@@H]1C(=O)N2CCc3c([nH]c4ccccc34)[C@@H]2C[C@@H]1N(C)C(=O)Nc1cccc2ccccc12
- AC50 [6]: 35.9 µM (active)

SMILES: Oc1ccc(/C=N/CC2COc3ccccc3O2)cc1 (stereo not given)
- EC50 [2]: > 29.9 µM (inactive)
- IC50 [3]: > 29.9 µM (inactive)
